{"source": "patent US8093406B2", "about": "“Cyclic sulfones with aminobenzyl substitution useful as BACE inhibitors” (Novartis AG, priority 2008, dated 2012)", "note": "Structures can show the parent of a compound that is named as a salt.", "data": [{"target": "T1, Human BACE (Homo sapiens, UniProt P56817)", "T1 construct": "Recombinant BACE (extracellular domain, expressed in baculovirus and purified using standard methods); made in house", "T1 sequence (P56817 46-457 limits assumed)": "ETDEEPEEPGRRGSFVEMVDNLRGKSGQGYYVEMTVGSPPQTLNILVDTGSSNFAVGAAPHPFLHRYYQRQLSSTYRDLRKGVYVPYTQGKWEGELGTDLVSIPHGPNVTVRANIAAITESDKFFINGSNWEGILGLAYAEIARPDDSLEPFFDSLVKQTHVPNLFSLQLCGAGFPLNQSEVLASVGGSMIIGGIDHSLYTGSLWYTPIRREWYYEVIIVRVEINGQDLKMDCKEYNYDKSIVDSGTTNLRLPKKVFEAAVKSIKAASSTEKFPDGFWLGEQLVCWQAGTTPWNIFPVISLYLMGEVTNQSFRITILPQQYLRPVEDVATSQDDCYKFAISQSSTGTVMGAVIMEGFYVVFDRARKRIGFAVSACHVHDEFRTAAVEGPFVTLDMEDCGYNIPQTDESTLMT", "experiment": "Test 1: Inhibition of Human BACE", "assay_type": "biochemical", "conditions": "Test 1; recombinant BACE extracellular domain, acetate buffer pH 4.5, 1 hour incubation at room temperature, fluorescence-quenched APP-derived peptide substrate; read-out: Bace IC50", "method": "Test 1: Inhibition of Human BACE\nRecombinant BACE (extracellular domain, expressed in baculovirus and purified using standard methods) at 0.1 to 10 nM concentrations is incubated with the test compound at various concentrations for 1 hour at room temperature in 10 to 100 mM acetate buffer, pH 4.5, containing 0.1% CHAPS. […] IC50 values are calculated from percentage of inhibition of BACE-activity as a function of the test compound concentration.", "units": {"IC50": "nM"}, "values": [{"compound": "CN(C)CCNc1ccc(C[C@@H]2CS(=O)(=O)C[C@H](NCc3cccc(C(C)(C)C)c3)[C@H]2O)cc1F", "note": "(racemic) [Example 7, (3R*,4S*,5S*)-3-(3-tert-Butyl-benzylamino)-5-[4A2-dimethylamino-ethyl-amino)-3-fluoro-benzyl]-1,1-dioxo-hexahydro-1lambda*6*-thiopyran-4-ol]", "IC50": 8400}, {"compound": "CCCCNC(=O)c1cc(C[C@@H]2CS(=O)(=O)C[C@H](NCc3cccc(C(C)(C)C)c3)[C@H]2O)ccc1N", "note": "(racemic) [Example 18, 2-Amino-N-butyl-5-[3S*,4S*,5R*)-5-(3-tert-butyl-benzylamino)-4-hydroxy-1,1-dioxo-hexahydro-1lambda*6*-thiopyran-3-ylmethyl]-benzamide]", "IC50": 38}, {"compound": "CCNCc1cc(C[C@@H]2CS(=O)(=O)C[C@H](NCc3cccc(C(C)(C)C)c3)[C@H]2O)cc(F)c1N", "note": "(relative stereo) [Example 3, (3S*,4S*,5R*)-3-(4-Amino-3-ethylaminomethyl-5-fluoro-benzyl)-5-(3-tert-butyl-benzylamino)-1,1-dioxo-hexahydro-1lambda*6*-thiopyran-4-ol hydrochloride]", "IC50": 1140}, {"compound": "CC(C)(C)c1cccc(CN[C@H]2CS(=O)(=O)C[C@@H](Cc3cc(F)c(N)c(N4CCCC4=O)c3)[C@@H]2O)c1", "note": "(relative stereo) [Example 4, 1-{2-Amino-5-[(3S*,4S*,5R*)-5-(3-tert-butyl-benzylamino)-4-hydroxy-1,1-dioxo-hexahydro-1lambda*6*-thiopyran-3-ylmethyl]-3-fluoro-phenyl}-pyrrolidin-2-one di-trifluoroacetate]", "IC50": 326}, {"compound": "CC(C)(C)c1cccc(CN[C@H]2CS(=O)(=O)C[C@@H](Cc3cc(F)c(N)c(N4CCC4=O)c3)[C@@H]2O)c1", "note": "(relative stereo) [Example 5, 1 {2-Amino-5-[(3S*,4S*,5R*)-5-(3-tert-butyl-benzylamino)-4-hydroxy-1,1-dioxo-hexahydro-1lambda*6*-thiopyran-3-ylmethyl]-3-fluoro-phenyl}-azetidin-2-one]", "IC50": 4700}, {"compound": "CCNCC(=O)Nc1c(F)cc(C[C@@H]2CS(=O)(=O)C[C@H](NCc3cccc(C(C)(C)C)c3)[C@H]2O)cc1CC", "note": "[Example 8, N-{4-[(3S,4S,5R)-5-(3-tert-Butyl-benzylamino)-4-hydroxy-1,1-dioxo-hexahydro-1lambda*6*-thiopyran-3-ylmethyl]-2-ethyl-6-fluoro-phenyl}-2-ethylamino-acetamide dihydrochloride]", "IC50": 42}, {"compound": "CCc1cc(C[C@@H]2CS(=O)(=O)C[C@H](NCc3cccc(C(C)(C)C)c3)[C@H]2O)cc(F)c1NC(=O)COC", "note": "[Example 10, N-{4-[(3S,4S,5R)-5-(3-tert-Butyl-benzylamino)-4-hydroxy-1,1-dioxo-hexa-hydro-1lambda*6*-thiopyran-3-ylmethyl]-2-ethyl-6-fluoro-phenyl}-2-methoxy-acetamide hydrochloride]", "IC50": 48}, {"compound": "CN(C)CC(=O)Nc1c(F)cc(C[C@@H]2CS(=O)(=O)C[C@H](NCc3cccc(C(C)(C)C)c3)[C@H]2O)cc1Cl", "note": "[Example 11, N-{4-[(3S,4S,5R)-5-(3-tert-Butyl-benzylamino)-4-hydroxy-1,1-dioxo-hexa-hydro-1lambda*6*-thiopyran-3-ylmethyl]-2-chloro-6-fluoro-phenyl}-2-dimethylamino-acetamide dihydrochloride]", "IC50": 74}, {"compound": "CCNCC(=O)Nc1c(F)cc(C[C@@H]2CS(=O)(=O)C[C@H](NCc3cccc(C(C)(C)C)c3)[C@H]2O)cc1Cl", "note": "[Example 12]", "IC50": 20}, {"compound": "CNCC(=O)Nc1c(F)cc(C[C@@H]2CS(=O)(=O)C[C@H](NCc3cccc(C(C)(C)C)c3)[C@H]2O)cc1Cl", "note": "[Example 13]", "IC50": 28}, {"compound": "CC(C)(C)c1cccc(CN[C@H]2CS(=O)(=O)C[C@@H](Cc3cc(F)c(NC(=O)CNC4CC4)c(Cl)c3)[C@@H]2O)c1", "note": "[Example 14, N-{4-[(3S,4S,5R)-5-(3-tert-butyl-benzylamino)-4-hydroxy-1,1-dioxo-hexa-hydro-1lambda*6*-thiopyran-3-ylmethyl]-2-chloro-6-fluoro-phenyl}-2-cyclopropylamino-acetamide]", "IC50": 22}, {"compound": "CC(C)(C)NCC(=O)Nc1c(F)cc(C[C@@H]2CS(=O)(=O)C[C@H](NCc3cccc(C(C)(C)C)c3)[C@H]2O)cc1Cl", "note": "[Example 15]", "IC50": 50}, {"compound": "CC(C)(C)c1cccc(CN[C@H]2CS(=O)(=O)C[C@@H](Cc3cc(F)c(NC(=O)CN4CCCCC4)c(Cl)c3)[C@@H]2O)c1", "note": "[Example 16]", "IC50": 34}, {"compound": "CC(C)(C)c1cccc(CN[C@H]2CS(=O)(=O)C[C@@H](Cc3cc(F)c(NCCNC4CC4)c(Cl)c3)[C@@H]2O)c1", "note": "[Example 17, (3R,4S,5S)-3-(3-tert-Butyl-benzylamino)-5-[3-chloro-4-(2-cyclopropyl-amino-ethylamino)-5-fluoro-benzyl]-1,1-dioxo-hexahydro-1lambda*6*-thiopyran-4-ol hydrochloride]", "IC50": 1760}, {"compound": "CCNC(=O)c1cc(CC2CS(=O)(=O)CC(NCc3cccc(C(C)(C)C)c3)C2O)ccc1N", "note": "(stereo not drawn) [Example 19]", "IC50": 26}, {"compound": "CCCNC(=O)c1cc(CC2CS(=O)(=O)CC(NCc3cccc(C(C)(C)C)c3)C2O)ccc1N", "note": "(stereo not drawn) [Example 20]", "IC50": 151}, {"compound": "CC(C)(C)c1cccc(CNC2CS(=O)(=O)CC(Cc3ccc(N)c(C(=O)NCC4CC4)c3)C2O)c1", "note": "(stereo not drawn) [Example 21]", "IC50": 8}, {"compound": "CC(C)(C)c1cccc(CNC2CS(=O)(=O)CC(Cc3ccc(N)c(C(=O)NCCF)c3)C2O)c1", "note": "(stereo not drawn) [Example 22]", "IC50": 46}, {"compound": "CC(C)(C)c1cccc(CNC2CS(=O)(=O)CC(Cc3ccc(N)c(C(=O)NCC(F)(F)F)c3)C2O)c1", "note": "(stereo not drawn) [Example 23]", "IC50": 175}, {"compound": "CN(C)CC(=O)Nc1c(F)cc(C[C@@H]2CS(=O)(=O)C[C@H](NCc3cccc(C(C)(C)C)c3)[C@H]2O)cc1OCC(F)(F)F", "note": "[Example 26, N-[4-[(3S,4S,5R)-5-(3-tert-Butyl-benzylamino)-4-hydroxy-1,1-dioxo-hexahydro-1lambda*6*-thiopyran-3-ylmethyl]-2-fluoro-6-(2,2,2-trifluoro-ethoxy)-phenyl]-2-dimethylamino-acetamide dihydrochloride]", "IC50": 7}, {"compound": "CCNCC(=O)Nc1c(F)cc(C[C@@H]2CS(=O)(=O)C[C@H](NCc3cccc(C(C)(C)C)c3)[C@H]2O)cc1OCC(F)(F)F", "note": "[Example 27]", "IC50": 3}, {"compound": "CC(C)(C)c1cccc(CN[C@H]2CS(=O)(=O)C[C@@H](Cc3cc(F)c(NC(=O)CN4CCC4)c(OCC(F)(F)F)c3)[C@@H]2O)c1", "note": "[Example 28]", "IC50": 7}, {"compound": "CC(C)(C)c1cccc(CN[C@H]2CS(=O)(=O)C[C@@H](Cc3cc(F)c(NC(=O)CN4CCCCC4)c(OCC(F)(F)F)c3)[C@@H]2O)c1", "note": "[Example 29]", "IC50": 5}, {"compound": "C[Si](C)(C)c1cccc(CN[C@H]2CS(=O)(=O)C[C@@H](Cc3cc(F)c(N)c(OC(C(F)(F)F)C(F)(F)F)c3)[C@@H]2O)c1", "note": "[Example 31, (3S,4S,5R)-3-[4-Amino-3-fluoro-5-(2,2,2-trifluoro-1-trifluoromethyl-ethoxy)-benzyl]-1,1-dioxo-5-(3-trimethylsilanyl-benzylamino)-hexahydro-1lambda*6*-thiopyran-4-ol]", "IC50": 22}, {"compound": "CC(C)(C)c1cccc(CN[C@H]2CS(=O)(=O)C[C@@H](Cc3cc(F)c(N)c(O[C@H](CO)C(F)(F)F)c3)[C@@H]2O)c1", "note": "[Example 38, (3S,4S,5R)-3-[4-Amino-3-fluoro-5-((R)-2,2,2-trifluoro-1-hydroxymethyl-ethoxy)-benzyl]-5-(3-tert-butyl-benzylamino)-1,1-dioxo-hexahydro-1lambda*6*-thio-pyran-4-ol]", "IC50": 3}, {"compound": "CC(C)(C)c1cccc(CN[C@H]2CS(=O)(=O)C[C@@H](Cc3cc(F)c(N)c(O[C@H](CN)C(F)(F)F)c3)[C@@H]2O)c1", "note": "[Example 39, (3S,4S,5R)-3-[4-Amino-3-((R)-1-aminomethyl-2,2,2-trifluoro-ethoxy)-5-fluoro-benzyl]-5-(3-tert-butyl-benzylamino)-1,1-dioxo-hexahydro-1lambda*6*-thiopyran-4-ol]", "IC50": 71}, {"compound": "COC[C@@H](Oc1cc(C[C@@H]2CSC[C@H](NCc3cccc(C(C)(C)C)c3)[C@H]2O)cc(F)c1N)C(F)(F)F", "note": "[Example 40, (3S,4S,5R)-3-[4-Amino-3-fluoro-5-((R)-2,2,2-trifluoro-1-methoxymethyl-ethoxy)-benzyl]-5-(3-tert-butyl-benzylamino)-tetrahydro-thiopyran-4-ol hydrochloride]", "IC50": 247}, {"compound": "COC[C@@H](Oc1cc(C[C@@H]2C[S+]([O-])C[C@H](NCc3cccc(C4(C)CC4)c3)[C@H]2O)cc(F)c1N)C(F)(F)F", "note": "(stereo partly drawn) [Example 43, (3S,4S,5R)-3-[4-Amino-3-fluoro-5-((R)-2,2,2-trifluoro-1-methoxymethyl-ethoxy)-benzyl]-5-[3-(1-methyl-cyclopropyl)-benzylamino]-1-oxo-hexahydro-1lambda*4*-thiopyran-4-ol hydrochloride]", "IC50": 10}, {"compound": "COC[C@@H](Oc1cc(C[C@@H]2C[S@@+]([O-])C[C@H](NCc3cccc(C(C)(C)C(F)(F)F)c3)[C@H]2O)cc(F)c1N)C(F)(F)F", "note": "[Example 44, (1R,3S,4S,5R)-3-[4-Amino-3-fluoro-5-((R)-2,2,2-trifluoro-1-methoxymethyl-ethoxy)-benzyl]-1-oxo-5-[3-(2,2,2-trifluoro-1,1-dimethyl-ethyl)-benzylamino]-tetrahydro-thiopyran-4-ol]", "IC50": 27}, {"compound": "COC[C@@H](Oc1cc(C[C@@H]2C[S@@+]([O-])C[C@H](NCc3cc(OC)cc(C(C)C)c3)[C@H]2O)cc(F)c1N)C(F)(F)F", "note": "[Example 48, (1R,3S,4S,5R)-3-[4-Amino-3-fluoro-5-((R)-2,2,2-trifluoro-1-methoxymethyl-ethoxy)-benzyl]-5-(3-isopropyl-5-methoxy-benzylamino)-1-oxo-tetrahydro-thiopyran-4-ol]", "IC50": 26}]}]}
